In US20110130285A1, “COMPOSITION FOR PROMOTING ROOT NODULE FORMATION OF PLANTS AND A METHOD FOR PROMOTING ROOT NODULE FORMATION OF PLANTS” (priority 2009, published 2011):

Experiments:
[1] = system: plant roots; details: applied to soil or hydroponic water; leaf vegetables, fruit vegetables, root vegetables, flowers and fruit trees (Japanese Patent No. 2927269); cited from earlier work
[2] = system: Soybean (Sachiyutaka); assay: Inosine applied by irrigation to soybean-growing vermiculite, low and high soil nutrient (Example 4); format: in vivo; details: 2 ppm and 20 ppm inosine solutions, irrigation 10, 17 and 25 days after seeding; 33 days after seeding; same soil fertilizer condition (low or high soil nutrient); vs distilled water groups
Experimental: Soybean (Sachiyutaka) was transplanted to 1.4 L of soil (vermiculite, moisture content: 50%) contained in each of pots (diameter: 15 cm). The treatment groups included the distilled water groups (Groups 1 and 4) and the inosine application groups (Groups 2, 3, 5 and 6), in which 2 ppm and 20 ppm inosine solutions were applied (Ikuou [Shoko Agri Co., Ltd.] was diluted with distilled water and applied), as shown in Table 3. The distilled water groups and the inosine application groups both include a group in which calcium superphosphate and potassium sulfate were added as fertilizers in amounts of 40 mg/pot in terms of P2O5 and K2O, respectively, and a group in which an organic fertilizer (“Hanasaku Hiryo (1.5-9-4.5)”, Tosho Co., Ltd.) was added in an amount of 2 g/pot (N:P2O5:K2O=30:180:90 mg/pot). The root nodule bacterium (“Mame-Zo”, Tokachi Federation of Agricultural Cooperative Associations) was added at a concentration of 4×10^4 cfu/cm^3 of soil. One individual showing good growth before development of a primary leaf was selected from each pot, and five individuals were used for measurement of each treatment group. Either distilled water or each of the inosine solutions in a volume of 250 ml was applied by irrigation, 10, 17 and 25 days after the seeding. The inosine concentrations in the soil given as a one-time application were 0.36 ppm for the 2 ppm solution groups, and 3.6 ppm for the 20 ppm solution groups, which were equivalent to 282 g/ha and 2,825 g/ha, respectively. Under the low nutrient soil condition (Groups 1 to 3), etiolation of the leaves was observed and considered to be due to deficiency of trace components. Accordingly, a solution of the composition shown in Table 4 was applied in a volume of 100 ml/pot by irrigation, 20 days and 27 days after the transplantation of the soybean. Even in this case, the nutrient concentration was lower than that of the high soil nutrient groups (Groups 4 to 6). [table] Thirty-three days after the seeding, the number of root nodules (FIG. 7), the dry weight of root nodules (FIG. 8), the dry weight of aboveground parts (FIG. 9), and the dry weight of underground parts (FIG. 10) were measured. Under the same soil fertilizer condition, the applications of the 2 ppm and 20 ppm inosine solutions both increased all of the number of root nodules, the dry weight of root nodules, the dry weight of aboveground parts and the dry weight of underground parts, as compared with the distilled water groups (0 ppm groups).

[3] = system: Soybean (Sachiyutaka); assay: Inosine applied to soybean by foliar spray, soil inoculated with Bradyrhizobium japonicum (Example 3); format: in vivo; details: 32 days after seeding; for Dry weight of aboveground part / Dry weight of underground part: foliar spray, table prints Inosine (ppm) 2, text 10 ppm, relative value, distilled water group taken as 100
Experimental: Soybean (Sachiyutaka) was seeded in 0.7 kg of soil (marketed black soil, moisture content: 35%) contained in each of pots. Calcium superphosphate and potassium sulfate were added as fertilizers in the amounts of 28 mg/pot, in terms of P2O5 and K2O, respectively. As root nodule bacterium, “Mame-Zo” (containing a soybean root nodule bacterium, Bradyrhizobium japonicum, Tokachi Federation of Agricultural Cooperative Associations, http://www.nokyoren.or.jp/material.html) was added to the soil at a root nodule bacterium concentration of 10^4 cfu/cm^3 of soil. The treatment groups included the distilled water group and the 10 ppm inosine solution group. One individual showing good growth before development of a primary leaf was selected from each pot, and five individuals were used for each treatment group. Either distilled water or the inosine solution in a volume of 5 ml was applied by foliar spray, 10, 14 and 19 days after the seeding. To the distilled water and the inosine solution, a spreading composition (Approach BI, Kao Corp., “Approach” is a registered trade name of Kao Corp.) was added at a concentration of 0.1 v/v %. The spray amount of inosine given as a one-time application was 10 g/ha in the 10 ppm inosine solution group. Thirty-two days after the seeding, the number of root nodules (FIG. 5), the dry weight of root nodules (FIG. 6), the dry weight of aboveground parts, and the dry weight of underground parts (Table 2) were measured. The dry weight of root nodules, the dry weight of aboveground parts, and the dry weight of underground parts were indicated with relative values based on the values of the distilled water group, which were taken as 100. The application of the 10 ppm inosine solution increased all of the number of root nodules, the dry weight of root nodules, the dry weight of aboveground parts and the dry weight of underground parts.

[4] = system: Soybean (Sachiyutaka); assay: Inosine applied by irrigation into soybean-growing black soil (Example 2); format: in vivo; details: 34 days after seeding; for Dry weight of aboveground part / Dry weight of underground part: 2 ppm inosine, irrigation, relative value, distilled water group taken as 100
Experimental: Soybean (Sachiyutaka) was seeded in 1 kg of soil (marketed black soil, moisture content: 35%) contained in each of the pots. Calcium superphosphate and potassium sulfate were added as fertilizers in the amounts of 40 mg/pot, in terms of P2O5 and K2O, respectively. The treatment groups included the distilled water group and the 2 ppm inosine solution group. One individual showing good growth before development of a primary leaf was selected from each pot, and five individuals were used for each treatment group. Either the distilled water or the inosine solution in a volume of 250 ml was applied to the soil in the pot by irrigation, 10, 14 and 19 days after the seeding. The inosine concentration in the soil given as a one-time application was 0.5 ppm, which was equivalent to 325 g/ha, in the 2 ppm solution group. Thirty-four days after the seeding, the number of root nodules (FIG. 3), the dry weight of root nodules (FIG. 4), the dry weight of aboveground parts, and the dry weight of underground parts (Table 1) were measured. The dry weight of root nodules, the dry weight of aboveground parts, and the dry weight of underground parts were indicated with relative values based on the values of the distilled water group, which were taken as 100. The application of the 2 ppm inosine solution increased all of the number of root nodules, the dry weight of root nodules, the dry weight of aboveground parts and the dry weight of underground parts.

[5] = system: soybean (Tanba-kuro, Chusei-hikari-kuro, Sachiyutaka); assay: Inosine sprayed on soil surface: root nodule formation and growth of soybean (Example 1); format: in vivo; details: 2 ppm and 20 ppm inosine solution, 250 ml sprayed on soil surface 7, 10 and 15 days after seeding, measured 20 days after seeding, all varieties Tanba-kuro, vs distilled water
Description: Various varieties of soybeans (black soybeans: Tanba-kuro and Chusei-hikari-kuro, white soybean: Sachiyutaka) were each seeded in 0.6 L of soil (marketed vermiculite, fertilizer was not added) contained in each of No. 4 pots (diameter: 12 cm). For each variety, 7 individuals showing good growth before development of primary leaf were selected per pot. Seven individuals were used for each of the following treatment groups.
2. 2 ppm Inosine solution group
3. 20 ppm Inosine solution group
4. 100 ppm Inosine solution group
Each solution in a volume of 250 ml was splayed on the soil surface in the pot, 7, 10 and 15 days after the seeding. The inosine concentrations in the soil given as a one-time application were 0.83 ppm for the 2 ppm solution group, 8.3 ppm for the 20 ppm solution group, and 41.7 ppm for the 100 ppm solution group, which were equivalent to 442 g/ha, 4,425 g/ha, and 22.1 kg/ha, respectively. The inosine solutions were prepared by diluting a 2% inosine solution (Ikuou, Shoko Agri Co., Ltd., containing 0.52% KOH as pH modifier in order to promote dissolution of inosine) with distilled water.
Twenty days after the seeding, the number of root nodules (FIG. 1) and the dry weight of aboveground parts (FIG. 2) were measured.

[6] = 10 ppm inosine solution, 5 ml foliar spray 10, 14 and 19 days after seeding, vs distilled water group
[7] = 2 ppm inosine solution, irrigation 10, 14 and 19 days after seeding, vs distilled water group

## OC[C@H]1O[C@@H](n2cnc3c(O)ncnc32)[C@H](O)[C@@H]1O [Inosine, inosine]
[1]
  growth of plant roots: promote the growth of plant roots
[2]
  dry weight of aboveground parts: increased
  dry weight of root nodules: increased
  dry weight of underground parts: increased
  number of root nodules: increased
[3]; [6]
  dry weight of root nodules: increased
  number of root nodules: increased
[3]
  Dry weight of aboveground part: 122.0
  Dry weight of underground part: 111.9
[3]; listed as inosine
  Dry weight of aboveground part: increased
  Dry weight of underground part: increased
[4]; [7]
  dry weight of root nodules: increased
  number of root nodules: increased
[4]
  Dry weight of aboveground part: 105.1
  Dry weight of underground part: 107.2
[4]; listed as inosine
  Dry weight of aboveground part: increased
  Dry weight of underground part: increased
[5]
  dry weight of aboveground parts: clearly increased
  number of root nodules: clearly increased
